Test results from PubChem BioAssay AID1259407 (Chemical Carcinogenesis Research Information System (CCRIS), 2018).
Calls of active or inactive are those of the source. How the calls were made is not given here.

System: CCRIS mutagenicity, Ames/micronucleus/aberration tests
Test: CCRIS mutagenicity studies

Oc1cccc2cccnc12
mutagenic call (End Point: IN VITRO CHROMOSOMAL ABERRATIONS, Test System: CHL CELLS, Metabolic Activation: RAT, LIVER, S-9, SODIUM PHENOBARBITAL AND 5,6-BENZOFLAVONE): active; positive (structural changes)
mutagenic call (End Point: IN VITRO CHROMOSOMAL ABERRATIONS, Test System: CHO-LB CELLS, Metabolic Activation: NONE): inactive; negative
mutagenic call (End Point: IN VITRO CHROMOSOMAL ABERRATIONS, Test System: CHO-LB CELLS, Metabolic Activation: RAT, LIVER, S-9, AROCLOR 1254): active; positive
mutagenic call (End Point: IN VITRO CHROMOSOMAL ABERRATIONS, Test System: CHO-WBL CELLS, Metabolic Activation: RAT, LIVER, S-9, PHENOBARBITAL AND BETA-NAPHTHOFLAVONE): active; positive
mutagenic call (Test System: AMES SALMONELLA TYPHIMURIUM, Strain/Indicator: TA97, Metabolic Activation: HAMSTER, LIVER, S-9, AROCLOR 1254 (10%), Method: PREINCUBATION): active; positive
mutagenic call (Test System: AMES SALMONELLA TYPHIMURIUM, Strain/Indicator: TA97, Metabolic Activation: NONE, Method: PREINCUBATION): inactive; negative
mutagenic call (Test System: AMES SALMONELLA TYPHIMURIUM, Strain/Indicator: TA97, Metabolic Activation: RAT, LIVER, S-9, AROCLOR 1254 (10%), Method: PREINCUBATION): active; positive
mutagenic call (Test System: AMES SALMONELLA TYPHIMURIUM, Strain/Indicator: TA98, Metabolic Activation: HAMSTER, LIVER, S-9, AROCLOR 1254 (10%), Method: PREINCUBATION): inactive; negative
mutagenic call (Test System: AMES SALMONELLA TYPHIMURIUM, Strain/Indicator: TA98, Metabolic Activation: HAMSTER, LIVER, S-9, AROCLOR 1254 (30%), Method: PREINCUBATION): inactive; negative
mutagenic call (Test System: AMES SALMONELLA TYPHIMURIUM, Strain/Indicator: TA98, Metabolic Activation: NONE, Method: FLUCTUATION (MICROTITER)): inactive; negative
mutagenic call (Test System: AMES SALMONELLA TYPHIMURIUM, Strain/Indicator: TA98, Metabolic Activation: NONE, Method: PREINCUBATION): inactive; negative
mutagenic call (Test System: AMES SALMONELLA TYPHIMURIUM, Strain/Indicator: TA98, Metabolic Activation: RAT LIVER S-9, AROCLOR 1254, Method: FLUCTUATION (MICROTITER)): active; positive
mutagenic call (Test System: AMES SALMONELLA TYPHIMURIUM, Strain/Indicator: TA98, Metabolic Activation: RAT, LIVER, S-9, AROCLOR 1254 (10%), Method: PREINCUBATION): inactive; negative
mutagenic call (Test System: AMES SALMONELLA TYPHIMURIUM, Strain/Indicator: TA98, Metabolic Activation: RAT, LIVER, S-9, AROCLOR 1254 (30%), Method: PREINCUBATION): active; positive
mutagenic call (Test System: AMES SALMONELLA TYPHIMURIUM, Strain/Indicator: TA98, Metabolic Activation: RAT, LIVER, S-9, AROCLOR 1254, Method: STANDARD PLATE): active; positive
mutagenic call (Test System: AMES SALMONELLA TYPHIMURIUM, Strain/Indicator: TA98, Metabolic Activation: RAT, LIVER, S-9, KC500 OR PHENOBARBITAL, Method: LIQUID SUSPENSION): active; positive
mutagenic call (Test System: AMES SALMONELLA TYPHIMURIUM, Strain/Indicator: TA98, Metabolic Activation: RAT, LIVER, S-9, Method: PREINCUBATION): active; positive
mutagenic call (Test System: AMES SALMONELLA TYPHIMURIUM, Strain/Indicator: TA100, Metabolic Activation: HAMSTER, LIVER, S-9, AROCLOR 1254 (10%), Method: PREINCUBATION): active; positive
mutagenic call (Test System: AMES SALMONELLA TYPHIMURIUM, Strain/Indicator: TA100, Metabolic Activation: HAMSTER, LIVER, S-9, AROCLOR 1254 (30%), Method: PREINCUBATION): inactive; negative
mutagenic call (Test System: AMES SALMONELLA TYPHIMURIUM, Strain/Indicator: TA100, Metabolic Activation: NONE, Method: PREINCUBATION): inactive; negative
mutagenic call (Test System: AMES SALMONELLA TYPHIMURIUM, Strain/Indicator: TA100, Metabolic Activation: NONE, Method: STANDARD PLATE): inactive; negative
mutagenic call (Test System: AMES SALMONELLA TYPHIMURIUM, Strain/Indicator: TA100, Metabolic Activation: RAT, LIVER, S-9, AROCLOR 1254 (5%, 10% OR 20%), Method: STANDARD PLATE): active; positive
mutagenic call (Test System: AMES SALMONELLA TYPHIMURIUM, Strain/Indicator: TA100, Metabolic Activation: RAT, LIVER, S-9, AROCLOR 1254 (10% OR 20%), Method: STANDARD PLATE): active; positive
mutagenic call (Test System: AMES SALMONELLA TYPHIMURIUM, Strain/Indicator: TA100, Metabolic Activation: RAT, LIVER, S-9, AROCLOR 1254 (10%), Method: PREINCUBATION): active; positive
mutagenic call (Test System: AMES SALMONELLA TYPHIMURIUM, Strain/Indicator: TA100, Metabolic Activation: RAT, LIVER, S-9, AROCLOR 1254 (30%), Method: PREINCUBATION): active; positive
mutagenic call (Test System: AMES SALMONELLA TYPHIMURIUM, Strain/Indicator: TA100, Metabolic Activation: RAT, LIVER, S-9, AROCLOR 1254, Method: STANDARD PLATE): active; positive
mutagenic call (Test System: AMES SALMONELLA TYPHIMURIUM, Strain/Indicator: TA100, Metabolic Activation: RAT, LIVER, S-9, KC500 OR PHENOBARBITAL, Method: LIQUID SUSPENSION): active; positive
mutagenic call (Test System: AMES SALMONELLA TYPHIMURIUM, Strain/Indicator: TA100, Metabolic Activation: RAT, LIVER, S-9, Method: PREINCUBATION): active; positive
mutagenic call (Test System: AMES SALMONELLA TYPHIMURIUM, Strain/Indicator: TA100, Metabolic Activation: S-9, Method: PREINCUBATION): active; positive
mutagenic call (Test System: AMES SALMONELLA TYPHIMURIUM, Strain/Indicator: TA1535, Metabolic Activation: HAMSTER, LIVER, S-9, AROCLOR 1254 (10%), Method: PREINCUBATION): inactive; negative
mutagenic call (Test System: AMES SALMONELLA TYPHIMURIUM, Strain/Indicator: TA1535, Metabolic Activation: NONE, Method: PREINCUBATION): inactive; negative
mutagenic call (Test System: AMES SALMONELLA TYPHIMURIUM, Strain/Indicator: TA1535, Metabolic Activation: RAT, LIVER, S-9, AROCLOR 1254 (10%), Method: PREINCUBATION): inactive; negative
mutagenic call (Test System: AMES SALMONELLA TYPHIMURIUM, Strain/Indicator: TA1535, Metabolic Activation: RAT, LIVER, S-9, AROCLOR 1254, Method: STANDARD PLATE): active; positive
mutagenic call (Test System: AMES SALMONELLA TYPHIMURIUM, Strain/Indicator: TA1537, Metabolic Activation: NONE, Method: FLUCTUATION (MICROTITER)): inactive; negative
mutagenic call (Test System: AMES SALMONELLA TYPHIMURIUM, Strain/Indicator: TA1537, Metabolic Activation: RAT LIVER S-9, AROCLOR 1254, Method: FLUCTUATION (MICROTITER)): active; positive
mutagenic call (Test System: AMES SALMONELLA TYPHIMURIUM, Strain/Indicator: TA1537, Metabolic Activation: RAT, LIVER, S-9, AROCLOR 1254, Method: STANDARD PLATE): active; positive
mutagenic call (Test System: AMES SALMONELLA TYPHIMURIUM, Strain/Indicator: TA7001, Metabolic Activation: NONE, Method: FLUCTUATION (MICROTITER)): inactive; negative
mutagenic call (Test System: AMES SALMONELLA TYPHIMURIUM, Strain/Indicator: TA7001, Metabolic Activation: RAT LIVER S-9, AROCLOR 1254, Method: FLUCTUATION (MICROTITER)): inactive; negative
mutagenic call (Test System: AMES SALMONELLA TYPHIMURIUM, Strain/Indicator: TA7002, Metabolic Activation: NONE, Method: FLUCTUATION (MICROTITER)): inactive; negative
mutagenic call (Test System: AMES SALMONELLA TYPHIMURIUM, Strain/Indicator: TA7002, Metabolic Activation: RAT LIVER S-9, AROCLOR 1254, Method: FLUCTUATION (MICROTITER)): active; positive
mutagenic call (Test System: AMES SALMONELLA TYPHIMURIUM, Strain/Indicator: TA7003, Metabolic Activation: NONE, Method: FLUCTUATION (MICROTITER)): inactive; negative
mutagenic call (Test System: AMES SALMONELLA TYPHIMURIUM, Strain/Indicator: TA7003, Metabolic Activation: RAT LIVER S-9, AROCLOR 1254, Method: FLUCTUATION (MICROTITER)): inactive; negative
mutagenic call (Test System: AMES SALMONELLA TYPHIMURIUM, Strain/Indicator: TA7004, Metabolic Activation: NONE, Method: FLUCTUATION (MICROTITER)): inactive; negative
mutagenic call (Test System: AMES SALMONELLA TYPHIMURIUM, Strain/Indicator: TA7004, Metabolic Activation: RAT LIVER S-9, AROCLOR 1254, Method: FLUCTUATION (MICROTITER)): inactive; negative
mutagenic call (Test System: AMES SALMONELLA TYPHIMURIUM, Strain/Indicator: TA7005, Metabolic Activation: NONE, Method: FLUCTUATION (MICROTITER)): inactive; negative
mutagenic call (Test System: AMES SALMONELLA TYPHIMURIUM, Strain/Indicator: TA7005, Metabolic Activation: RAT LIVER S-9, AROCLOR 1254, Method: FLUCTUATION (MICROTITER)): active; positive
mutagenic call (Test System: AMES SALMONELLA TYPHIMURIUM, Strain/Indicator: TA7006, Metabolic Activation: NONE, Method: FLUCTUATION (MICROTITER)): inactive; negative
mutagenic call (Test System: AMES SALMONELLA TYPHIMURIUM, Strain/Indicator: TA7006, Metabolic Activation: RAT LIVER S-9, AROCLOR 1254, Method: FLUCTUATION (MICROTITER)): inactive; negative
mutagenic call (Test System: UDS RODENT HEPATOCYTES, Strain/Indicator: THY INCORP (NON-S-PHASE), Metabolic Activation: IN VIVO, Method: AUTORADIOGRAPHY): inactive; negative
